Literature values, collected in patent US5238927A (priority 1992, dated 1993).

Conditions: in vivo

For `NC(=O)c1cc[n+](COC[n+]2ccccc2C=NO)cc1` [HI-6, 1-(2-hydroxyiminomethylpyridinium)-2-(4-carboxyamidopyridinium)-dimethyl ether dichloride], the “effectiveness as antidote in the treatment of organophosphorus toxin nerve poisoning” value is listed as “most effective known antidote”.
